pIC50: −log10 of the molar value. Structures can show the parent of a compound that is named as a salt.

One data set concerns the target T1, BRD4 BD1 (Homo sapiens, UniProt O60885).
T1 construct: HEK293 cells were transfected using NanoLuc-BRD4-BD1 or NanoLuc-BRD4-BD2 fusion vectors; host or cells: HEK293
Description: NanoBRET bromodomain assay, BRD4 BD1. In kind it is cell-based. As to conditions: HEK293 cells transfected with NanoLuc-BRD4-BD1. As for the experimental part: (§1) HEK293 cells were transfected using NanoLuc-BRD4-BD1 or NanoLuc-BRD4-BD2 fusion vectors and incubated at 37° C. in an atmosphere of 5% CO2 for 20-24 hours. The transfected cells were then dispensed into 96-well plates using 90 μl cell suspension per well containing 2×10^5 cells/ml in Opti-MEM and 1x final concentration of tracer. 90 μl per well of cell suspension without tracer was also dispensed into at least 3 wells as “No tracer control samples” for background correction. Serially diluted test compounds were prepared at 1000× concentration in DMSO and further diluted to 10× concentration in Opti-MEM. 10 μl per well of the serially diluted 10× test compound was added to the 96-well plates containing cells with 1x tracer. Plates were then incubated at 37° C.+5% C02 incubator for 2 hours. Immediately prior to BRET measurements, a 3x solution consisting of 1:166 dilution of Nano-Glo® Substrate plus a 1:500 dilution of Extracellular NanoLuc Inhibitor in Opti-MEM was prepared and 50 μl per well was added to the cells. Donor emission (450 nm) and acceptor emission (610 nm) were measured using PHERAstar (BMG LabTech). For data analysis, the raw BRET ratio was generated and converted to milliBRET units with background correction using the formula: [(Acceptorsample/Donorsample)−(Acceptorno tracer control/Donorno tracer control)]×1000. The mBU data was plotted as a function of compound concentration and IC50s for BRET assay were determined by nonlinear regression analysis of concentration response curves using the GraphPad Prism software.

A short description of data set [1]: Intrinsic clearance in rat liver microsomes. In kind it is in vitro ADME. The settings on record: pH 7.4, NADPH, read-out: Rat Microsomal Stability T½. Here is the method:
A 50 mM stock solution (in DMSO) was prepared for the compound. From the stock solution, a working solution of 0.5 mM was prepared by diluting the compound in DMSO. This concentration of working solution was prepared considering a final concentration of 1 uM with 0.1% DMSO. The compound (1 uL of working solution) was spiked in PBS with pH 7.4 (22 uL) at a concentration of 1 uM. Subsequently, 110 uL of 10 mM NADPH was added (as a co-factor). The sample was incubated at 37° C. for 15 min. Following this, pre-warmed rat liver microsomes (27.5 uL; final protein conc. 0.5 mg/mL) were added. The samples were then incubated at 37° C. Aliquots of samples were withdrawn at 0, 5, 15, 30, 45 and 60 min. The reaction was stopped by using chilled acetonitrile containing internal standard. The samples were centrifuged and the supernatants analysed by LC-MS/MS. The percent compound remaining at each time point was calculated with respect to that of the 0 min sample. The data were then analysed to calculate half-life. Note that control samples were run without NADPH and blank samples were prepared using DMSO without the test Compound.

A further data set has as its target T2, BRD4 BD2 (Homo sapiens, UniProt O60885).
T2 construct: HEK293 cells were transfected using NanoLuc-BRD4-BD1 or NanoLuc-BRD4-BD2 fusion vectors; host or cells: HEK293
Description: NanoBRET bromodomain assay, BRD4 BD2. In kind it is cell-based. As to conditions: for Fold selectivity BRD4 BD1/BD2: IC50 BD1/IC50 BD2; for pIC50: NanoBRET, HEK293 cells transfected with NanoLuc-BRD4-BD2. Here is the method: as §1
Fold Selectivity Calculated (IC50 BD1/IC50 BD2).
(In general: Bioluminescence resonance energy transfer reports proximity on the nanometre scale.)

As usually defined, the pIC50 is the negative decadic logarithm of the IC50, by convention in mol/L. A high value points to a low IC50. The compound `Cc1cccc(C)c1Oc1cn(C)c(=O)cc1-c1cn(C)c(=O)c2[nH]c(-c3cn(C(C)C)nc3C)cc12` [Example 6, 4-(5-(2,6-dimethylphenoxy)-1-methyl-2-oxo-1,2-dihydropyridin-4-yl)-2-(1-isopropyl-3-methyl-1H-pyrazol-4-yl)-6-methyl-1,6-dihydro-7H-pyrrolo[2,3-c]pyridin-7-one] showed a pIC50 on BRD4 BD1 of 6.00 to 6.30. Also, the half-life at 1 uM in data set [1] was over 1 h. Moreover, at BRD4 BD2, the “Fold selectivity BRD4 BD1/BD2” value was “xxx (Fold >200)” and the pIC50 was at least 7.30.
For `Cc1cccc(C)c1Oc1cn(C)c(=O)cc1-c1cn(C)c(=O)c2[nH]c(-c3ccccc3)cc12` [Example 8, 4-(5-(2,6-dimethylphenoxy)-1-methyl-2-oxo-1,2-dihydropyridin-4-yl)-6-methyl-2-phenyl-1,6-dihydro-7H-pyrrolo[2,3-c] pyridin-7-one], at BRD4 BD1, the pIC50 was under 6.00. In addition, in data set [1], the half-life at 1 uM is over 1 h. On BRD4 BD2, the “Fold selectivity BRD4 BD1/BD2” value was “xx (Fold >50 and ≤200)”; the pIC50 is 6.70 to 7.30.
Compound `Cc1cccc(C)c1Oc1cn(C)c(=O)cc1-c1cn(C)c(=O)c2[nH]c(-c3cccnc3)cc12` [Example 9, 4-(5-(2,6-dimethylphenoxy)-1-methyl-2-oxo-1,2-dihydropyridin-4-yl)-6-methyl-2-(pyridin-3-yi)-1,6-dihydro-7H-pyrrolo[2,3-c] pyridin-7-one.TFA] had a pIC50 on BRD4 BD1 of under 6.00. Also, in data set [1], the half-life at 1 uM is over 1 h. Further, at BRD4 BD2, the “Fold selectivity BRD4 BD1/BD2” value is “x (Fold >2 and ≤50)”; the pIC50 is 6.00 to 6.70.
Turning to `Cc1cccc(C)c1Oc1cn(C)c(=O)cc1-c1cn(C)c(=O)c2[nH]c(-c3ccncc3)cc12` [Example 10, 4-(5-(2,6-dimethylphenoxy)-1-methyl-2-oxo-1,2-dihydropyridin-4-yl)-6-methyl-2-(pyridin-4-yl)-1,6-dihydro-7H-pyrrolo[2,3-c] pyridin-7-one], the pIC50 against BRD4 BD1 was under 6.00; at BRD4 BD2, at least 7.30. For the same compound, the half-life at 1 uM in data set [1] came to 0.733 h. Also, at BRD4 BD2, the “Fold selectivity BRD4 BD1/BD2” value is “xxx (Fold >200)”.
At BRD4 BD1, `Cc1cccc(C)c1Oc1cn(C)c(=O)cc1-c1cn(C)c(=O)c2[nH]c(-c3cn(C)nc3C)cc12` [Example 12, 2-(1,3-dimethyl-1H-pyrazol-4-yl)-4-(5-(2,6-dimethylphenoxy)-1-methyl-2-oxo-1,2-dihydropyridin-4-yl)-6-methyl-1,6-dihydro-7H-pyrrolo[2,3-c] pyridin-7-one] showed a pIC50 of 6.00 to 6.30. Also, the half-life at 1 uM in data set [1] was over 1 h. On BRD4 BD2, the “Fold selectivity BRD4 BD1/BD2” value was “xx (Fold >50 and ≤200)”; the pIC50 was at least 7.30.
`Cc1cccc(C)c1Oc1cn(C)c(=O)cc1-c1cn(C)c(=O)c2[nH]c(-c3ccn(C)c3)cc12` [Example 13, 4-(5-(2,6-dimethylphenoxy)-1-methyl-2-oxo-1,2-dihydropyridin-4-yl)-6-methyl-2-(1-methyl-1H-pyrrol-3-yl)-1,6-dihydro-7H-pyrrolo[2,3-c] pyridin-7-one] showed a pIC50 against BRD4 BD1 of under 6.00. For the same compound, in data set [1], the half-life at 1 uM was over 1 h. Further, at BRD4 BD2, the “Fold selectivity BRD4 BD1/BD2” value was “xxx (Fold >200)” and the negative logarithm of the IC50 (pIC50) is at least 7.30.
Compound `Cc1ccccc1-c1cc2c(-c3cc(=O)n(C)cc3Oc3c(C)cccc3C)cn(C)c(=O)c2[nH]1` [Example 15, 4-(5-(2,6-dimethylphenoxy)-1-methyl-2-oxo-1,2-dihydropyridin-4-yl)-6-methyl-2-(o-tolyl)-1,6-dihydro-7H-pyrrolo[2,3-c] pyridin-7-one] gave a pIC50 against BRD4 BD1 of under 6.00. Also, the half-life at 1 uM in data set [1] came out at 0.383 h. Moreover, at BRD4 BD2, the “Fold selectivity BRD4 BD1/BD2” value was “x (Fold >2 and ≤50)”; the pIC50 is 6.00 to 6.70.
For the compound `Cc1ccc(F)c(-c2cc3c(-c4cc(=O)n(C)cc4Oc4c(C)cccc4C)cn(C)c(=O)c3[nH]2)c1` [Example 16, 4-(5-(2,6-dimethylphenoxy)-1-methyl-2-oxo-1,2-dihydropyridin-4-yl)-2-(2-fluoro-5-methylphenyl)-6-methyl-1,6-dihydro-7H-pyrrolo[2,3-c] pyridin-7-one], on BRD4 BD1, the pIC50 was under 6.00. Also, the half-life at 1 uM in data set [1] was over 1 h. Besides, at BRD4 BD2, the “Fold selectivity BRD4 BD1/BD2” value is on record as “xxx (Fold >200)” and the pIC50 is at least 7.30.
Compound `Cc1ccc(F)cc1-c1cc2c(-c3cc(=O)n(C)cc3Oc3c(C)cccc3C)cn(C)c(=O)c2[nH]1` [Example 18, 4-(5-(2,6-dimethylphenoxy)-1-methyl-2-oxo-1,2-dihydropyridin-4-yl)-2-(5-fluoro-2-methylphenyl)-6-methyl-1,6-dihydro-7H-pyrrolo[2,3-c] pyridin-7-one] gave a pIC50 at BRD4 BD1 of under 6.00. The half-life at 1 uM in data set [1] is over 1 h. At BRD4 BD2, the “Fold selectivity BRD4 BD1/BD2” value was “xx (Fold >50 and ≤200)”; the pIC50 was 6.70 to 7.30.
Take `Cc1ccc(C)c(-c2cc3c(-c4cc(=O)n(C)cc4Oc4c(C)cccc4C)cn(C)c(=O)c3[nH]2)c1` [Example 19, 4-(5-(2,6-dimethylphenoxy)-1-methyl-2-oxo-1,2-dihydropyridin-4-yl)-2-(2,5-dimethylphenyl)-6-methyl-1,6-dihydro-7H-pyrrolo[2,3-c] pyridin-7-one]: on BRD4 BD1, the pIC50 is under 6.00. In addition, in data set [1], the half-life at 1 uM was over 1 h. At BRD4 BD2, the “Fold selectivity BRD4 BD1/BD2” value was “x (Fold >2 and ≤50)”; the pIC50 is 6.00 to 6.70.
Consider `Cc1ccc(Cl)cc1-c1cc2c(-c3cc(=O)n(C)cc3Oc3c(C)cccc3C)cn(C)c(=O)c2[nH]1` [Example 20, 2-(5-chloro-2-methylphenyl)-4-(5-(2,6-dimethylphenoxy)-1-methyl-2-oxo-1,2-dihydropyridin-4-yl)-6-methyl-1,6-dihydro-7H-pyrrolo[2,3-c] pyridin-7-one], for which, at BRD4 BD1, the pIC50 is under 6.00. Further, in data set [1], the half-life at 1 uM is over 1 h. At BRD4 BD2, the “Fold selectivity BRD4 BD1/BD2” value is “x (Fold >2 and ≤50)”; the pIC50 was 6.00 to 6.70.
`Cc1ccc(C(F)(F)F)cc1-c1cc2c(-c3cc(=O)n(C)cc3Oc3c(C)cccc3C)cn(C)c(=O)c2[nH]1` [Example 21, 4-(5-(2,6-dimethylphenoxy)-1-methyl-2-oxo-1,2-dihydropyridin-4-yl)-6-methyl-2-(2-methyl-5-(trifluoromethyl)phenyl)-1,6-dihydro-7H-pyrrolo[2,3-c] pyridin-7-one]: the pIC50 at BRD4 BD1 is under 6.00. Besides, the half-life at 1 uM in data set [1] is over 1 h. On BRD4 BD2, the “Fold selectivity BRD4 BD1/BD2” value was “— (Fold ≥0 and ≤2)”; the pIC50 is under 6.00.
The compound `Cc1cccc(C)c1Oc1cn(C)c(=O)cc1-c1cn(C)c(=O)c2[nH]c(-c3cncnc3)cc12` [Example 22, 4-(5-(2,6-dimethylphenoxy)-1-methyl-2-oxo-1,2-dihydropyridin-4-yl)-6-methyl-2-(pyrimidin-5-yl)-1,6-dihydro-7H-pyrrolo[2,3-c] pyridin-7-one] showed a pIC50 at BRD4 BD1 of under 6.00. Further, the half-life at 1 uM in data set [1] is over 1 h. At BRD4 BD2, the “Fold selectivity BRD4 BD1/BD2” value was “xx (Fold >50 and ≤200)”; the pIC50 was 6.70 to 7.30.
Consider `Cc1ccc(-c2cc3c(-c4cc(=O)n(C)cc4Oc4c(C)cccc4C)cn(C)c(=O)c3[nH]2)cc1` [Example 23, 4-(5-(2,6-dimethylphenoxy)-1-methyl-2-oxo-1,2-dihydropyridin-4-yl)-6-methyl-2-(p-tolyl)-1,6-dihydro-7H-pyrrolo[2,3-c] pyridin-7-one], for which the results for the pIC50 at BRD4 BD1 and against BRD4 BD2 were under 6.00 and 6.00 to 6.70, respectively. Also, the half-life at 1 uM in data set [1] is over 1 h. Moreover, at BRD4 BD2, the “Fold selectivity BRD4 BD1/BD2” value was “x (Fold >2 and ≤50)”.
`Cc1cccc(C)c1Oc1cn(C)c(=O)cc1-c1cn(C)c(=O)c2[nH]c(-c3cnn(CS(C)(=O)=O)c3)cc12` [Example 65, 4-(5-(2,6-dimethylphenoxy)-1-methyl-2-oxo-1,2-dihydropyridin-4-yl)-6-methyl-2-(1-((methylsulfonyl)methyl)-1H-pyrazol-4-yl)-1,6-dihydro-7H-pyrrolo[2,3-c]pyridin-7-one] had a pIC50 against BRD4 BD1 of under 6.00. On BRD4 BD2, the “Fold selectivity BRD4 BD1/BD2” value was “x (Fold >2 and ≤50)”; the pIC50 is at least 7.30.

The values are drawn from patent publication US20240308998A1, “PYRROLOPYRIDONE DERIVATIVES USEFUL IN THE TREATMENT OF CANCER” (Tay Therapeutics Limited, priority 2021, published 2024).
